Test results published in patent USRE42013E1, “Macrocyclic modulators of the ghrelin receptor” (Tranzyme Pharma Inc., priority 2003, dated 2010).
pEC50, pKi: −log10 of the molar value. Like-named read-outs stand apart in the source and are kept apart here.

Tests used:
[1] = molecular target: human ghrelin receptor (hGHS-R1a) (Homo sapiens, UniProt Q92847); assay: cell-based
Description: B. Aequorin Functional Assay (Ghrelin Receptor)
This cell line is typically constructed by transfection of the human ghrelin receptor into CHO-K1 cells co-expressing Gα16 and the mitochondrially targeted Aequorin (Ref #ES-WT-A5). • 1. […] Assay buffer: DMEM (Dulbecco's Modified Eagles Medium) containing 0.1% BSA (bovine serum albumin; pH 7.0). • 3. Coelenterazine (Molecular Probes, Leiden, The Netherlands). Final test concentrations (N=8) for compounds of the invention: 10, 1, 0.3, 0.1, 0.03, 0.01, 0.003, 0.001 μM. Compound Handling
Assay plates were then prepared by appropriate dilution in DMEM medium containing 0.1% BSA. Under these conditions, the maximal final DMSO concentration in the assay was <0.6%.
AequoScreen™ cells were collected from culture plates with Ca^2+ and Mg^2+-free phosphate buffered saline (PBS) supplemented with 5 mM EDTA, pelleted for 2 min at 1000×g, re-suspended in DMEM—Ham's F12 containing 0.1% BSA at a density of 5×10^6 cells/mL, and incubated O/N at rt in the presence of 5 μM coelenterazinc. After loading, cells were diluted with assay buffer to a concentration of 5×10^5 cells/mL.
For agonist testing, 50 μL of the cell suspension was mixed with 50 μL of the appropriate concentration of test compound or ghrelin (reference agonist) in 96-well plates (duplicate samples). Ghrelin (reference agonist) was tested at several concentrations concurrently with the test compounds in order to validate the experiment. The emission of light resulting from receptor activation in response to ghrelin or test compounds was recorded using the Hamamatsu FDSS 6000 reader (Hamamatsu Photonics K.K., Japan).
Analysis and Expression of Results
Results were expressed as Relative Light Units (RLU). […] EC50, Hill slope and % Emax values are reported.
Key Aspects of Method • 1. Assay performed on CHO-K1 cells expressing the transfected, cloned human ghrelin receptor (hGHS-R1a) and Gα16. • 2. Suspended cells incubated O/N with coelenterazine. • 3. Stimulation of hGHS-R1a activates Gα16, causing intercellular Ca2+ release which ultimately leads to the oxidation of coelenterazine and the emission of a quantitative luminescent signal. • 4. Ghrelin was used as the positive control. • 5.

[2] = molecular target: T1, human growth hormone secretagogue receptor (hGHS-R1a) (Homo sapiens, UniProt Q92847); assay: Competitive radioligand binding assay (ghrelin receptor), [125I]-ghrelin displacement
T1 construct: purchased PerkinElmer BioSignal #RBHGHSM, lot#1887; host or cells: HEK-293, stably transfected
Description: The competitive binding assay at the human growth hormone secretagogue receptor (hGHS-R1a) was carried out analogously to assays described in the literature.
Multiscreen Harvest plates-GF/C (Millipore, #MAHFC1H60) • 4. […] Bottom seal (Millipore, #MATAH0P00) • 7. […] Binding Buffer: 25 mM Hepes (pH 7.4), 1 mM CaCl2, 5 mM MgCl2, 2.5 mM EDTA, 0.4% BSA Assay Volumes
Competition experiments were performed in a 300 μl filtration assay format. • 1. 220 μL of membranes diluted in binding buffer • 2. 40 μL of compound diluted in binding buffer • 3. […] Compound Handling
Compounds were provided frozen on dry ice at a stock concentration of 10 mM diluted in 100% DMSO and stored at −80° C. until the day of testing. On the test day, compounds were allowed to thaw at rt O/N and then diluted in assay buffer according to the desired test concentrations.
Plates were sealed with TopSeal-A, vortexed gently and incubated at rt for 30 min. The reaction was arrested by filtering samples through Multiscreen Harvest plates (pre-soaked in 0.5% polyethyleneimine) using a Tomtec Harvester, washed 9 times with 500 μL of cold 50 mM Tris-HCl (pH 7.4, 4° C.), and then plates were air-dried in a fumehood for 30 min. A bottom seal was applied to the plates prior to the addition of 25 μL of MicroScint-0 to each well. […] Results were expressed as counts per minute (cpm).
Data were analyzed by GraphPad Prism (GraphPad Software, San Diego, Calif.) using a variable slope non-linear regression analysis.
Compound structures for Tables 3A, 3B and 3D are presented with the various groups as defined for the general structure of formula I. For Tables 3B and 3D, in all entries, m, n and p are 0; X, Z1 and Z2 are each NH. For Table 3B, R1 is H for all entries. The tethers (T) are illustrated with the bonding to X and Z2 as indicated. The compounds themselves are shown for Table 3C.
• 1. […] Key Aspects of Method • 1. […] Results

[3] = Table 4, binding at human ghrelin receptor, TFA salts unless otherwise noted, read-out: Ki
[4] = binding activity at the human ghrelin receptor, [125I]-ghrelin displacement, hGHS-R1a/HEK-293 membranes, read-out: Ki
[5] = Table 3B, binding at human ghrelin receptor, [125I]-ghrelin displacement, read-out: Ki
[6] = [125I]-ghrelin displacement, hGHS-R1a HEK-293 membranes, read-out: Binding Activity at the Human Ghrelin Receptor (Ki)
[7] = Table 3D, binding at human ghrelin receptor, [125I]-ghrelin displacement, read-out: Ki

human ghrelin receptor (hGHS-R1a), sequence (Q92847 whole entry): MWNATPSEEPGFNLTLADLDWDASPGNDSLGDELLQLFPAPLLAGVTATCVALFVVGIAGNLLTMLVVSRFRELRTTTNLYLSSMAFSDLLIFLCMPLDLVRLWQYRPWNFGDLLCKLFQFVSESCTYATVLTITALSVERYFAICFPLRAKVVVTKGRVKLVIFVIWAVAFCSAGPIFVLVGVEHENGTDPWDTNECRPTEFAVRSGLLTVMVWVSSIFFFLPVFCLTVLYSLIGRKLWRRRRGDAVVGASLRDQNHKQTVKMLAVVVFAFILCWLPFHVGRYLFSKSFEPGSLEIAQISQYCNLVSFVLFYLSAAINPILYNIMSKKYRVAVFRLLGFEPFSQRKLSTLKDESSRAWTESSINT
T1 sequence (Q92847 whole entry): as above

Structure (SMILES)	pKi [2, 4]	pKi [2, 5]	other results
CCCC1NCCOc2ccccc2C=CCNC(=O)C(Cc2ccccc2)NC(=O)CN(C)C1=O (stereo not shown) [compound 11]	7.00 to 8.00		pEC50 [1]: 6.00 to 7.00; pKi [2, 3]: 7.00 to 8.00
CCC(C)C1NCCc2ccccc2CCCNC(=O)C(Cc2ccccc2)NC(=O)C(C)N(C)C1=O (stereo not shown) [compound 214]			pEC50 [1]: 6.00 to 7.00; pKi [2, 3]: 6.00 to 7.00; pKi [2, 6]: 5.00 to 7.00
CC(C)CC1NCCOc2ccccc2C=CCNC(=O)C(CC(C)C)NC(=O)C2(CCCC2)NC1=O (stereo not shown) [compound 47]	5.00 to 7.00		pEC50 [1]: 7.00 to 9.00; pKi [2, 3]: 6.00 to 7.00
CCC(C)C1NCCCc2ccccc2CCCCNC(=O)C(Cc2cccc(Cl)c2)NC(=O)C2(CCCC2)NC1=O (stereo not shown) [compound 371]		> 7.00	
CCC(C)C1NCc2ccccc2CCCCCNC(=O)C(Cc2cccc(Cl)c2)NC(=O)C2(CCCC2)NC1=O (stereo not shown) [compound 362]		5.00 to 7.00	
O=C1NC2(CCCC2)C(=O)NC(Cc2cccc(Cl)c2)C(=O)NCC=Cc2ccccc2OCCNC1Cc1ccc(O)cc1 (stereo not shown) [compound 301]		> 7.00	
CCC(C)C1NCCCNCCNC(=O)C(Cc2cccc(Cl)c2)NC(=O)C2(CCCC2)NC1=O (stereo not shown) [compound 390]		5.00 to 7.00	
CCC(C)C1NCCOc2ccccc2C=CCNC(=O)C(Cc2ccsc2)NC(=O)C2(CCCC2)NC1=O (stereo not shown) [compound 333]		5.00 to 7.00	
CC(=O)N1CCOc2ccccc2C=CCNC(=O)C(Cc2ccccc2)NC(=O)C2(CCCC2)NC(=O)C1CC(C)C (stereo not shown) [compound 204]			pKi [2, 6]: < 5.00
O=C1NC2(CCCC2)C(=O)NC(Cc2cccc(Cl)c2)C(=O)NCC=Cc2ccccc2OCCNC1Cc1ccsc1 (stereo not shown) [compound 341]		> 7.00	
CCCC1NCc2ccccc2Sc2ccccc2CNC(=O)C(Cc2ccccc2)NC(=O)CN(C)C1=O (stereo not shown) [compound 77]	5.00 to 7.00		
CCC(C)C1NCCOc2ccccc2C(C)(C)CCNC(=O)C(Cc2cccc(Cl)c2)NC(=O)C2(CCCC2)NC1=O (stereo not shown) [compound 359]		5.00 to 7.00	
O=C1NC2(CCCC2)C(=O)NC(Cc2ccccc2)C(=O)NCC=Cc2ccccc2OCCNC1Cc1ccc2ccccc2c1 (stereo not shown) [compound 131]	5.00 to 7.00		
CCC(C)C1NCCCCCNC(=O)C(Cc2cccc(Cl)c2)NC(=O)C2(CCCC2)NC1=O (stereo not shown) [compound 447]			pKi [2, 7]: 5.00 to 6.00
CC(C)C1NCCOc2ccccc2C=CCNC(=O)C(Cc2ccccc2)NC(=O)C2(Cc3ccccc3C2)NC1=O (stereo not shown) [compound 142]	5.00 to 7.00		
CC(C)C[C@@H]1NCCOc2ccccc2CCCNC(=O)[C@H](Cc2ccccc2)NC(=O)[C@@H]2CCCN2C1=O [compound 222]			pKi ([2]; Table 3E, binding activity at the human ghrelin receptor, class symbols, read-out: Ki): 5.00 to 6.00
CC(C)CC1NCCOc2ccccc2C=CCNC(=O)C(C(c2ccccc2)c2ccccc2)NC(=O)C2(CCCC2)NC1=O (stereo not shown) [compound 158]	< 6.00		
O=C1NC2(CCCC2)C(=O)NC(Cc2ccccc2)C(=O)NCC=Cc2ccccc2OCCNC1Cc1ccccn1 (stereo not shown) [compound 210]			pKi [2, 6]: < 6.00
COCC1NCCOc2ccccc2C=CCNC(=O)C(Cc2cccc(Cl)c2)NC(=O)C2(CCCC2)NC1=O (stereo not shown) [compound 344]		5.00 to 7.00	
CC(C)CC1NCc2ccccc2Sc2ccccc2CNC(=O)C(Cc2ccccc2)NC(=O)C2(CCCC2)NC1=O (stereo not shown) [compound 108]	5.00 to 6.00		
CCC(C)C1NCCOc2ccccc2CCCNC(=O)C(Cc2ccc(F)cc2)NC(=O)C(COCc2ccccc2)N(C)C1=O (stereo not shown) [compound 440]			pKi [2, 7]: 5.00 to 7.00
CC(C)C1NCCOc2ccccc2C=CCNC(=O)C(Cc2ccccc2)NC(=O)C2(CCCC2)NC1=O (stereo not shown) [compound 200]			pKi [2, 6]: 7.00 to 8.00
CCOC(=O)CCC1NC(=O)C2(CCCC2)NC(=O)C(CC(C)C)NCCOc2ccccc2C=CCNC1=O (stereo not shown) [compound 116]	5.00 to 6.00		
CCCC1NCCOc2ccccc2C=CCNC(=O)C(Cc2ccccc2)NC(=O)C2(CCCC2)NC1=O (stereo not shown) [compound 137]	7.00 to 8.00		
CCC(C)C1NCCCCCCCNC(=O)C(Cc2cccc(Cl)c2)NC(=O)C2(CCCC2)NC1=O (stereo not shown) [compound 366]		5.00 to 7.00	

Now from value to molecule, other results behind:

pKi [2, 4]	pKi [2, 5]	Structure (SMILES)	other results
	8.00 to 10.00	CCC(C)C1NCCOc2ccccc2C2CC2CNC(=O)C(Cc2cccc(Cl)c2)NC(=O)C2(CCCC2)NC1=O (stereo not shown) [compound 388]	pEC50 [1]: 7.00 to 9.00; pKi [2, 3]: 8.00 to 10.00
7.00 to 8.00		CCC(C)C1NCCOc2ccccc2CCCNC(=O)C(Cc2ccc(-c3ccccc3)cc2)NC(=O)C(C)N(C)C1=O (stereo not shown) [compound 28]	pEC50 [1]: 7.00 to 9.00; pKi [2, 3]: 7.00 to 8.00
	> 7.00	CC1C(=O)NC(Cc2ccc(F)cc2)C(=O)NCC#Cc2ccccc2OCCNC(C2CC2)C(=O)N1C (stereo not shown) [compound 354]	pEC50 [1]: 7.00 to 9.00; pKi [2, 3]: 7.00 to 8.00
5.00 to 7.00		CCC(C)C1NCCOCC=CCCNC(=O)C(Cc2ccccc2)NC(=O)C(C)N(C)C1=O (stereo not shown) [compound 186]	pEC50 [1]: 6.00 to 7.00; pKi [2, 3]: 6.00 to 7.00
	8.00 to 10.00	CC1C(=O)NC(Cc2c(F)c(F)c(F)c(F)c2F)C(=O)NCCCc2ccccc2OCCNC(C2CC2)C(=O)N1C (stereo not shown) [compound 318]	pEC50 [1]: 7.00 to 9.00; pKi [2, 3]: 8.00 to 10.00
7.00 to 8.00		CCC(C)C1NCCOc2ccccc2CCCNC(=O)C(Cc2cccnc2)NC(=O)C(C)N(C)C1=O (stereo not shown) [compound 170]	pEC50 [1]: 6.00 to 7.00; pKi [2, 3]: 7.00 to 8.00
	5.00 to 7.00	CCC(C)C1NCCOc2ccccc2C2CC2CNC(=O)C(Cc2cccc(Cl)c2)NC(=O)C2(CCCC2)NC1=O (stereo not shown) [compound 387]	
	> 7.00	CC1C(=O)NC(Cc2c[nH]c3ccccc23)C(=O)NCCCc2ccccc2OCCNC(C2CC2)C(=O)N1C (stereo not shown) [compound 324]	
< 5.00		CCCC1NCCOc2ccccc2CCCNC(=O)C(Cc2ccccc2)NC(=O)C(CCC(=O)O)NC1=O (stereo not shown) [compound 71]	
	> 7.00	CC1C(=O)NC(Cc2ccc(F)cc2)C(=O)NCCCc2cc(F)ccc2OCCNC(C2CC2)C(=O)N1C (stereo not shown) [compound 355]	
	5.00 to 7.00	CCC(C)C1NCCOc2ccccc2C(C)CCNC(=O)C(Cc2cccc(Cl)c2)NC(=O)C2(CCCC2)NC1=O (stereo not shown) [compound 386]	
	5.00 to 7.00	COc1ccc(CC2NC(=O)C(C)N(C)C(=O)C(C3CC3)NCCOc3ccccc3CCCNC2=O)cc1OC (stereo not shown) [compound 323]	
< 5.00		CCCC1NCC2CCC(CNC(=O)C(Cc3ccccc3)NC(=O)CN(C)C1=O)O2 (stereo not shown) [compound 78]	
< 5.00		CCCC1NCCOc2ccccc2CCCNC(=O)C(CO)NC(=O)CN(C)C1=O (stereo not shown) [compound 54]	
5.00 to 6.00		CCCC1NCCOc2ccccc2CCCNC(=O)C(Cc2ccccc2)NC(=O)C(Cc2ccccc2)NC1=O (stereo not shown) [compound 65]	
	5.00 to 7.00	CCC(C)C1NCCOc2cccnc2CCCNC(=O)C(Cc2cccc(Cl)c2)NC(=O)C2(CCCC2)NC1=O (stereo not shown) [compound 385]	
5.00 to 7.00		CCC(C)C1NCCOc2ccccc2CCCNC(=O)C(Cc2cscn2)NC(=O)C(C)N(C)C1=O (stereo not shown) [compound 33]	
	5.00 to 7.00	CC1C(=O)NC(Cc2ccc(F)cc2)C(=O)NCCCc2ccc(NS(C)(=O)=O)cc2OCCNC(C2CC2)C(=O)N1C (stereo not shown) [compound 357]	
	5.00 to 7.00	CCC(C)C1NCCOc2cc(F)ccc2CCCNC(=O)C(Cc2cccc(Cl)c2)NC(=O)C2(CCCC2)NC1=O (stereo not shown) [compound 383]	
5.00 to 7.00		CCC(C)C1NCCOc2ccccc2CCNC(=O)C(Cc2ccccc2)NC(=O)C(C)N(C)C1=O (stereo not shown) [compound 178]	pKi [2, 3]: 6.00 to 7.00
	> 7.00	CC1C(=O)NC(Cc2ccc(F)cc2)C(=O)NCC2CC2c2ccccc2OCCNC(C2CC2)C(=O)N1C (stereo not shown) [compound 379]	
	> 7.00	CC1C(=O)NC(Cc2ccsc2)C(=O)NCCCc2ccccc2OCCNC(C2CC2)C(=O)N1C (stereo not shown) [compound 310]	
	> 7.00	CCC(C)C1NCCOc2ccccc2CC(C)CNC(=O)C(Cc2cccc(Cl)c2)NC(=O)C2(CCCC2)NC1=O (stereo not shown) [compound 392]	
